In patent US20240025907A1, “QUINAZOLINE PAN-KRas INHIBITORS” (Mirati Therapeutics, Inc., priority 2022, published 2024):

How the values were obtained:
Type in all cases: cell-based
[1] = test system: KRas-mediated Phosphorylation of ERK in A549 cells; test: Cisbio HTRF pERK assay, A549 cells; settings: single point at 100 nM; for inhibition at 0.1 µM: Homo sapiens, A549, A549 cells; for Inhibition (HTRF % at 100 nM) of KRas-mediated Phosphorylation of ERK, A549: A549 cells, 0.1 µM
[2] = test system: KRas-mediated Phosphorylation of ERK in H358 cells; test: Cisbio HTRF pERK assay, H358 cells; settings: single point at 100 nM; for inhibition at 0.1 µM: Homo sapiens, NCI-H358, H358 cells; for Inhibition (HTRF % at 100 nM) of KRas-mediated Phosphorylation of ERK, H358: H358 cells, 0.1 µM
[3] = test system: KRas-mediated Phosphorylation of ERK in H460 cells; test: Cisbio HTRF pERK assay, H460 cells; settings: single point at 100 nM; for Inhibition (HTRF % at 100 nM) of KRas-mediated Phosphorylation of ERK, H460: H460 cells, 0.1 µM; for inhibition at 0.1 µM: Homo sapiens, NCI-H460, H460 cells
[4] = test system: KRas-mediated Phosphorylation of ERK in HCT116 cells; test: Cisbio HTRF pERK assay, HCT116 cells; settings: single point at 100 nM; for Inhibition (HTRF % at 100 nM) of KRas-mediated Phosphorylation of ERK, HCT116: HCT116 cells, 0.1 µM; for inhibition at 0.1 µM: Homo sapiens, HCT-116, HCT116 cells

SMILES: CCc1c(F)ccc2cc(O)cc(-c3c(F)cc4c(N5CCCn6nc(C(=O)N(C)C)cc6C5)nc(OCC5(CN(C)C)CC5)nc4c3F)c12 [Example 55, 5-(2-((1-((dimethylamino)methyl)cyclopropyl)methoxy)-7-(8-ethyl-7-fluoro-3-hydroxynaphthalen-1-yl)-6,8-difluoroquinazolin-4-yl)-N,N-dimethyl-5,6,7,8-tetrahydro-4H-pyrazolo[1,5-a][1,4]diazepine-2-carboxamide]
- inhibition at 0.1 µM [1]: -13%
- inhibition at 0.1 µM [2]: 2%

SMILES: CCc1c(F)ccc2cc(O)cc(-c3c(F)cc4c(N5CCCn6nc(C(=O)N(C)C)cc6C5)nc(OC[C@@]56CCCN5C[C@H](F)C6)nc4c3F)c12 (atropisomer, axis not shown; (aS)) [Example 63, 5-((R)-7-(8-ethyl-7-fluoro-3-hydroxynaphthalen-1-yl)-6,8-difluoro-2-(((2R,7aS)-2-fluorohexahydro-1H-pyrrolizin-7a-yl)methoxy)quinazolin-4-yl)-N,N-dimethyl-5,6,7,8-tetrahydro-4H-pyrazolo[1,5-a][1,4]diazepine-2-carboxamide]
- Inhibition (HTRF % at 100 nM) of KRas-mediated Phosphorylation of ERK, H460 [3]: 82%
- Inhibition (HTRF % at 100 nM) of KRas-mediated Phosphorylation of ERK, HCT116 [4]: 61%

SMILES: CCc1c(F)ccc2cc(O)cc(-c3ccc4c(N5CCCn6nncc6C5)nc(OC[C@@]56CCCN5C[C@H](F)C6)nc4c3F)c12 [Example 44]
- inhibition at 0.1 µM [1]: -9%
- inhibition at 0.1 µM [2]: 3%

SMILES: CCc1c(F)ccc2cc(O)cc(-c3c(O)cc4c(N(C)C)nc(OC[C@@]56CCCN5C[C@H](F)C6)nc4c3F)c12 [Example 28, 4-(dimethylamino)-7-(8-ethyl-7-fluoro-3-hydroxynaphthalen-1-yl)-8-fluoro-2-(((2R,7aS)-2-fluorotetrahydro-1H-pyrrolizin-7a(5H)-yl)methoxy)quinazolin-6-ol]
- inhibition at 0.1 µM [3]: 8%
- inhibition at 0.1 µM [4]: 9%

SMILES: CCc1c(F)ccc2cc(O)cc(-c3c(F)cc4c(N5CC6C(=O)NC(=O)C6C5)nc(OCC5(CN(C)C)CC5)nc4c3F)c12 (centres unmarked) [Example 52, 5-(2-((1-((dimethylamino)methyl)cyclopropyl)methoxy)-7-(8-ethly-7-fluoro-3-hydroxynaphthalen-1-yl)-6,8-difluoroquinazolin-4-yl)tetrahydropyrrolo[3,4-c]pyrrole-1,3(2H,3aH)-dione]
- inhibition at 0.1 µM [1]: 33%
- inhibition at 0.1 µM [2]: 6%

SMILES: CCc1c(F)ccc2cc(O)cc(-c3ccc4c(N5CCCC6(CNS(=O)(=O)N6)C5)nc(OCC5(CN(C)C)CC5)nc4c3F)c12 (centres unmarked) [Example 37, 7-(2-((1-((dimethylamino)methyl)cyclopropyl)methoxy)-7-(8-ethyl-7-fluoro-3-hydroxynaphthalen-1-yl)-8-fluoroquinazolin-4-yl)-2-thia-1,3,7-triazaspiro[4.5]decane 2,2-dioxide]
- inhibition at 0.1 µM [3]: 28%
- inhibition at 0.1 µM [4]: 0%

SMILES: CCc1c(F)ccc2cc(O)cc(-c3c(F)cc4c(N5CCCn6nc(C(=O)N(C)C)cc6C5)nc(OC[C@@]56CCCN5C[C@H](F)C6)nc4c3F)c12 (atropisomer, axis not shown; (aS)) [Example 64, 5-((S)-7-(8-ethyl-7-fluoro-3-hydroxynaphthalen-1-yl)-6,8-difluoro-2-(((2R,7aS)-2-fluorohexahydro-1H-pyrrolizin-7a-yl)methoxy)quinazolin-4-yl)-N,N-dimethyl-5,6,7,8-tetrahydro-4H-pyrazolo[1,5-a][1,4]diazepine-2-carboxamide]
- Inhibition (HTRF % at 100 nM) of KRas-mediated Phosphorylation of ERK, H460 [3]: 3%
- Inhibition (HTRF % at 100 nM) of KRas-mediated Phosphorylation of ERK, HCT116 [4]: 14%

SMILES: CCc1c(F)ccc2cc(O)cc(-c3c(F)cc4c(N5CCCC6(C5)NC(=O)NC6=O)nc(OCC5(CN(C)C)CC5)nc4c3F)c12 (centres unmarked) [Example 54, 7-(2-((1-((dimethylamino)methyl)cyclopropyl)methoxy)-7-(8-ethyl-7-fluoro-3-hydroxynaphthalen-1-yl)-6,8-difluoroquinazolin-4-yl)-1,3,7-triazaspiro[4.5]decane-2,4-dione]
- inhibition at 0.1 µM [1]: 61%
- inhibition at 0.1 µM [2]: 100%

SMILES: CCc1c(F)ccc2cc(O)cc(-c3c(F)cc4c(N5CCC[C@@](C)(O)C5)nc(OCC56CCCN5CCC6)nc4c3F)c12 [Example 48, (3R)-1-(7-(8-ethyl-7-fluoro-3-hydroxynaphthalen-1-yl)-6,8-difluoro-2-((tetrahydro-1H-pyrrolizin-7a(5H)-yl)methoxy)quinazolin-4-yl)-3-methylpiperidin-3-ol]
- inhibition at 0.1 µM [3]: 75%
- inhibition at 0.1 µM [4]: 50%

SMILES: CCc1c(F)ccc2cc(O)cc(-c3c(F)cc4c(N5CCC[C@@](C)(O)C5)nc(OC[C@@]56CCCN5C[C@H](F)C6)nc4c3F)c12 (atropisomer, axis not shown; (aS)) [Example 69, (R)-1-((R)-7-(8-ethyl-7-fluoro-3-hydroxynaphthalen-1-yl)-6,8-difluoro-2-(((2R,7aS)-2-fluorotetrahydro-1H-pyrrolizin-7a(5H)-yl)methoxy)quinazolin-4-yl)-3-methylpiperidin-3-ol]
- Inhibition (HTRF % at 100 nM) of KRas-mediated Phosphorylation of ERK, A549 [1]: 84%
- Inhibition (HTRF % at 100 nM) of KRas-mediated Phosphorylation of ERK, H358 [2]: 101%

SMILES: CCc1c(F)ccc2cc(O)cc(-c3c(F)cc4c(N5CCCn6nc(C(=O)N7CCCC7)cc6C5)nc(OC[C@@]56CCCN5C[C@H](F)C6)nc4c3F)c12 [Example 58, (5-(7-(8-ethyl-7-fluoro-3-hydroxynaphthalen-1-yl)-6,8-difluoro-2-(((2R,7aS)-2-fluorotetrahydro-1H-pyrrolizin-7a(5H)-yl)methoxy)quinazolin-4-yl)-5,6,7,8-tetrahydro-4H-pyrazolo[1,5-a][1,4]diazepin-2-yl)(pyrrolidin-1-yl)methanone]
- inhibition at 0.1 µM [3]: 58%
- inhibition at 0.1 µM [4]: 12%

SMILES: O=S1(=O)NCC2(CCCN(c3nc(OC[C@@]45CCCN4C[C@H](F)C5)nc4c(F)c(-c5cc(O)cc6ccc(F)c(Cl)c56)c(F)cc34)C2)N1 (stereo partly drawn) [Example 45, 7-(7-(8-chloro-7-fluoro-3-hydroxynaphthalen-1-yl)-6,8-difluoro-2-(((2R,7aS)-2-fluorotetrahydro-1H-pyrrolizin-7a(5H)-yl)methoxy)quinazolin-4-yl)-2-thia-1,3,7-triazaspiro[4.5]decane 2,2-dioxide]
- inhibition at 0.1 µM [3]: 94%
- inhibition at 0.1 µM [4]: 86%

SMILES: CCc1c(F)ccc2cc(O)cc(-c3c(F)cc4c(N5CCC[C@@](C)(O)C5)nc(OC[C@@]56CCCN5C[C@H](F)C6)nc4c3F)c12 (atropisomer, axis not shown; (aS)) [Example 70, (R)-1-((S)-7-(8-ethyl-7-fluoro-3-hydroxynaphthalen-1-yl)-6,8-difluoro-2-(((2R,7aS)-2-fluorotetrahydro-1H-pyrrolizin-7a(5H)-yl)methoxy)quinazolin-4-yl)-3-methylpiperidin-3-ol]
- Inhibition (HTRF % at 100 nM) of KRas-mediated Phosphorylation of ERK, A549 [1]: 6%
- Inhibition (HTRF % at 100 nM) of KRas-mediated Phosphorylation of ERK, H358 [2]: 24%

SMILES: CCc1c(F)ccc2cc(O)cc(-c3c(F)cc4c(N5CCCC6(CC(=O)N6)C5)nc(OCC5(CN(C)C)CC5)nc4c3F)c12 (centres unmarked) [Example 51, 6-(2-((1-((dimethylamino)methyl)cyclopropyl)methoxy)-7-(8-ethyl-7-fluoro-3-hydroxynaphthalen-1-yl)-6,8-difluoroquinazolin-4-yl)-1,6-diazaspiro[3.5]nonan-2-one]
- inhibition at 0.1 µM [1]: 6%
- inhibition at 0.1 µM [2]: 67%

SMILES: CCc1c(F)ccc2cc(O)cc(-c3ccc4c(N5CCCC6(CNC(=O)N6)C5)nc(OCC5(CN(C)C)CC5)nc4c3F)c12 (centres unmarked) [Example 36, 7-(2-((1-((dimethylamino)methyl)cyclopropyl)methoxy)-7-(8-ethyl-7-fluoro-3-hydroxynaphthalen-1-yl)-8-fluoroquinazolin-4-yl)-1,3,7-triazaspiro[4.5]decan-2-one]
- inhibition at 0.1 µM [3]: 25%
- inhibition at 0.1 µM [4]: -22%

SMILES: CCc1c(F)ccc2cc(O)cc(-c3ccc4c(N5CCCC6(CC(=O)N6)C5)nc(OCC5(CN(C)C)CC5)nc4c3F)c12 (centres unmarked) [Example 38, 6-(2-((1-((dimethylamino)methyl)cyclopropyl)methoxy)-7-(8-ethyl-7-fluoro-3-hydroxynaphthalen-1-yl)-8-fluoroquinazolin-4-yl)-1,6-diazaspiro[3.5]nonan-2-one]
- inhibition at 0.1 µM [1]: 9%
- inhibition at 0.1 µM [2]: 16%

SMILES: CCc1c(F)ccc2cc(O)cc(-c3ccc4c(N5CC6C(=O)NC(=O)C6C5)nc(OCC5(CN(C)C)CC5)nc4c3F)c12 (centres unmarked) [Example 39, 5-(2-((1-((dimethylamino)methyl)cyclopropyl)methoxy)-7-(8-ethyl-7-fluoro-3-hydroxynaphthalen-1-yl)-8-fluoroquinazolin-4-yl)tetrahydropyrrolo[3,4-c]pyrrole-1,3(2H,3aH)-dione]
- inhibition at 0.1 µM [3]: 11%
- inhibition at 0.1 µM [4]: 3%

SMILES: CCc1c(F)ccc2cc(O)cc(-c3c(F)cc4c(N5CCCn6nncc6C5)nc(OC[C@@]56CCCN5C[C@H](F)C6)nc4c3F)c12 [Example 61, 4-(4-(7,8-dihydro-4H-[1,2,3]triazolo[1,5-a][1,4]diazepin-5(6H)-yl)-6,8-difluoro-2-(((2R,7aS)-2-fluorotetrahydro-1H-pyrrolizin-7a(5H)-yl)methoxy)quinazolin-7-yl)-5-ethyl-6-fluoronaphthalen-2-ol]
- inhibition at 0.1 µM [3]: 36%
- inhibition at 0.1 µM [4]: 9%

SMILES: CCc1c(F)ccc2cc(O)cc(-c3c(F)cc4c(N5CCCC6(CC(O)C6)C5)nc(OCC5(CN(C)C)CC5)nc4c3F)c12 (centres unmarked) [Example 53, 6-(2-((1-((dimethylamino)methyl)cyclopropyl)methoxy)-7-(8-ethyl-7-fluoro-3-hydroxynaphthalen-1-yl)-6,8-difluoroquinazolin-4-yl)-6-azaspiro[3.5]nonan-2-ol]
- inhibition at 0.1 µM [1]: 27%
- inhibition at 0.1 µM [2]: 40%
